Assay results reported in ChEMBL document CHEMBL3885881, “DrugMatrix”.

Species: Rattus norvegicus
Assay: DrugMatrix - Regimen: Daily Repeat
Type: toxicity, organism-based, Sprague-Dawley
Parameters: regimen Daily Repeat, gender Male, age 6-8 weeks
Conditions: in vivo, po, route oral GAVAGE, vehicle 100 % WATER; for ABSOLUTE BASOPHIL / ABSOLUTE EOSINOPHIL / ABSOLUTE LYMPHOCYTE / ABSOLUTE MONOCYTE / ABSOLUTE SEGMENTED NEUTROPHIL / BASOPHIL / EOSINOPHIL / ERYTHROCYTE COUNT / HEMATOCRIT / HEMOGLOBIN / LEUKOCYTE COUNT / LYMPHOCYTE / MEAN CORPUSCULAR HEMOGLOBIN / MEAN CORPUSCULAR HEMOGLOBIN CONCENTRATION / MEAN CORPUSCULAR VOLUME / MONOCYTE / NEUTROPHIL / NUCLEATED RED BLOOD CELLS / PLATELET COUNT: tissue Blood; for ALANINE AMINOTRANSFERASE / ALBUMIN / ALKALINE PHOSPHATASE / ASPARTATE AMINOTRANSFERASE / BLOOD UREA NITROGEN / CARBON DIOXIDE / CHLORIDE / CHOLESTEROL / CREATINE PHOSPHOKINASE / CREATININE / GLUCOSE / LACTATE DEHYDROGENASE / LIPASE / PHOSPHORUS / POTASSIUM / SODIUM / TOTAL BILIRUBIN / TOTAL PROTEIN / URIC ACID: tissue Plasma
[1] = 20 mg/kg, 120 h, dose level Low, time 5 day
[2] = 70 mg/kg, 72 h, dose level High, time 3 day
[3] = 70 mg/kg, 120 h, dose level High, time 5 day

C=CCC1(C(C)CCC)C(=O)NC(=O)NC1=O (centres undefined) [SECOBARBITAL]
ABSOLUTE BASOPHIL [1]: 0 CELLS/uL
ABSOLUTE EOSINOPHIL [1]: 32 CELLS/uL
ABSOLUTE LYMPHOCYTE [1]: 7003.67 CELLS/uL
ABSOLUTE MONOCYTE [1]: 32 CELLS/uL
ABSOLUTE SEGMENTED NEUTROPHIL [1]: 565.67 CELLS/uL
BASOPHIL [1]: 0%
EOSINOPHIL [1]: 0.33%
ERYTHROCYTE COUNT [1]: 5.26 x10E6/uL
HEMATOCRIT [1]: 32.97%
HEMOGLOBIN [1]: 12.83 G/DL
LEUKOCYTE COUNT [1]: 7.63 x10E3/uL
LYMPHOCYTE [1]: 92%
MEAN CORPUSCULAR HEMOGLOBIN [1]: 24.43 pg
MEAN CORPUSCULAR HEMOGLOBIN CONCENTRATION [1]: 38.97 G/DL
MEAN CORPUSCULAR VOLUME [1]: 62.7 fL
MONOCYTE [1]: 0.33%
NEUTROPHIL [1]: 7.33%
NUCLEATED RED BLOOD CELLS [1]: 0.33 /100WBC
PLATELET COUNT [1]: 1182 x10E3/uL
ALANINE AMINOTRANSFERASE [1]: 49.33 u/L
ALBUMIN [1]: 3.97 G/DL
ALKALINE PHOSPHATASE [1]: 382 u/L
ASPARTATE AMINOTRANSFERASE [1]: 77.67 u/L
BLOOD UREA NITROGEN [1]: 13.67 mg/dL
CARBON DIOXIDE [1]: 34 mmol/L
CHLORIDE [1]: 99 MEQ/L
CHOLESTEROL [1]: 77.33 mg/dL
CREATINE PHOSPHOKINASE [1]: 254 u/L
CREATININE [1]: 0.16 mg/dL
GLUCOSE [1]: 144 mg/dL
LACTATE DEHYDROGENASE [1]: 142.33 u/L
LIPASE [1]: 9 u/L
PHOSPHORUS [1]: 11.07 mg/dL
POTASSIUM [1]: 5.94 MEQ/L
SODIUM [1]: 144.5 MEQ/L
TOTAL BILIRUBIN [1]: 0.17 mg/dL
TOTAL PROTEIN [1]: 5.87 G/DL
URIC ACID [1]: 0.4 mg/dL
ABSOLUTE BASOPHIL [2]: 0 CELLS/uL
ABSOLUTE EOSINOPHIL [2]: 0 CELLS/uL
ABSOLUTE LYMPHOCYTE [2]: 6560.67 CELLS/uL
ABSOLUTE MONOCYTE [2]: 45.33 CELLS/uL
ABSOLUTE SEGMENTED NEUTROPHIL [2]: 794 CELLS/uL
BASOPHIL [2]: 0%
EOSINOPHIL [2]: 0%
ERYTHROCYTE COUNT [2]: 5.13 x10E6/uL
HEMATOCRIT [2]: 31.93%
HEMOGLOBIN [2]: 12.3 G/DL
LEUKOCYTE COUNT [2]: 7.4 x10E3/uL
LYMPHOCYTE [2]: 88.67%
MEAN CORPUSCULAR HEMOGLOBIN [2]: 24 pg
MEAN CORPUSCULAR HEMOGLOBIN CONCENTRATION [2]: 38.53 G/DL
MEAN CORPUSCULAR VOLUME [2]: 62.27 fL
MONOCYTE [2]: 0.67%
NEUTROPHIL [2]: 10.67%
NUCLEATED RED BLOOD CELLS [2]: 0.33 /100WBC
PLATELET COUNT [2]: 827 x10E3/uL
ALANINE AMINOTRANSFERASE [2]: 56.67 u/L
ALBUMIN [2]: 4.03 G/DL
ALKALINE PHOSPHATASE [2]: 339 u/L
ASPARTATE AMINOTRANSFERASE [2]: 83 u/L
BLOOD UREA NITROGEN [2]: 12 mg/dL
CARBON DIOXIDE [2]: 34.67 mmol/L
CHLORIDE [2]: 98.67 MEQ/L
CHOLESTEROL [2]: 74.67 mg/dL
CREATINE PHOSPHOKINASE [2]: 397.33 u/L
CREATININE [2]: 0.11 mg/dL
GLUCOSE [2]: 142.33 mg/dL
LACTATE DEHYDROGENASE [2]: 178.33 u/L
LIPASE [2]: 9.67 u/L
PHOSPHORUS [2]: 11.4 mg/dL
POTASSIUM [2]: 6.11 MEQ/L
SODIUM [2]: 143 MEQ/L
TOTAL BILIRUBIN [2]: 0.17 mg/dL
TOTAL PROTEIN [2]: 5.87 G/DL
URIC ACID [2]: 0.63 mg/dL
ABSOLUTE BASOPHIL [3]: 0 CELLS/uL
ABSOLUTE EOSINOPHIL [3]: 40.33 CELLS/uL
ABSOLUTE LYMPHOCYTE [3]: 5577 CELLS/uL
ABSOLUTE MONOCYTE [3]: 23 CELLS/uL
ABSOLUTE SEGMENTED NEUTROPHIL [3]: 693 CELLS/uL
BASOPHIL [3]: 0%
EOSINOPHIL [3]: 0.67%
ERYTHROCYTE COUNT [3]: 5.58 x10E6/uL
HEMATOCRIT [3]: 33.8%
HEMOGLOBIN [3]: 13.07 G/DL
LEUKOCYTE COUNT [3]: 6.33 x10E3/uL
LYMPHOCYTE [3]: 88%
MEAN CORPUSCULAR HEMOGLOBIN [3]: 23.4 pg
MEAN CORPUSCULAR HEMOGLOBIN CONCENTRATION [3]: 38.67 G/DL
MEAN CORPUSCULAR VOLUME [3]: 60.5 fL
MONOCYTE [3]: 0.33%
NEUTROPHIL [3]: 11%
NUCLEATED RED BLOOD CELLS [3]: 0.33 /100WBC
PLATELET COUNT [3]: 1210.33 x10E3/uL
ALANINE AMINOTRANSFERASE [3]: 59.33 u/L
ALBUMIN [3]: 4.03 G/DL
ALKALINE PHOSPHATASE [3]: 373.67 u/L
ASPARTATE AMINOTRANSFERASE [3]: 85.33 u/L
BLOOD UREA NITROGEN [3]: 15.33 mg/dL
CARBON DIOXIDE [3]: 32.33 mmol/L
CHLORIDE [3]: 100 MEQ/L
CHOLESTEROL [3]: 63.33 mg/dL
CREATINE PHOSPHOKINASE [3]: 260.67 u/L
CREATININE [3]: 0.13 mg/dL
GLUCOSE [3]: 147 mg/dL
LACTATE DEHYDROGENASE [3]: 127.67 u/L
LIPASE [3]: 9 u/L
PHOSPHORUS [3]: 10.93 mg/dL
POTASSIUM [3]: 5.66 MEQ/L
SODIUM [3]: 145.65 MEQ/L
TOTAL BILIRUBIN [3]: 0.1 mg/dL
TOTAL PROTEIN [3]: 5.8 G/DL
URIC ACID [3]: 0.73 mg/dL
